Source: ChEMBL document CHEMBL1201862, “PubChem BioAssay data set” (2004)
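Assay format: 96-well plates, 48-hour exposure. At the GI50, growth is halved.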 The source made the active and inactive calls. Cut-off read from the data, not from the text of the source: active = GI50 up to about 1.1 µM and inactive = higher.

Key:
Test in all cases: inhibition of tumour cell growth, NCI panel, 48 h
SR = tested on: SR
OVCAR-3 = tested on: OVCAR-3
MCF7 = tested on: MCF7
NCI-H522 = tested on: NCI-H522
DU-145 = tested on: DU-145
U-251 = tested on: U-251
PC-3 = tested on: PC-3
MDA-MB-231 = tested on: MDA-MB-231
RXF 393 = tested on: RXF 393
EKVX = tested on: EKVX
CCRF-CEM = tested on: CCRF-CEM
SK-MEL-5 = tested on: SK-MEL-5
Malme-3M = tested on: Malme-3M
SK-MEL-28 = tested on: SK-MEL-28
A498 = tested on: A498
OVCAR-5 = tested on: OVCAR-5
A549 = tested on: A549
BT-549 = tested on: BT-549
SNB-75 = tested on: SNB-75

Row | SMILES | GI50 (SR) | GI50 (OVCAR-3) | GI50 (MCF7) | GI50 (NCI-H522) | GI50 (DU-145) | GI50 (U-251) | GI50 (PC-3) | GI50 (MDA-MB-231) | GI50 (RXF 393) | GI50 (EKVX) | GI50 (CCRF-CEM) | GI50 (SK-MEL-5) | GI50 (Malme-3M) | GI50 (SK-MEL-28) | GI50 (A498) | GI50 (OVCAR-5) | GI50 (A549) | GI50 (BT-549) | GI50 (SNB-75)
1 | COc1ccc2c(CC(=O)O)cc(=O)oc2c1 | > 100 µM (inactive) | > 100 µM (inactive) | > 100 µM (inactive) | > 100 µM (inactive) | > 100 µM (inactive) | > 100 µM (inactive) | > 100 µM (inactive) | > 100 µM (inactive) | > 100 µM (inactive) | > 100 µM (inactive) | > 100 µM (inactive) | > 100 µM (inactive) | 54.8 µM (inactive) | > 100 µM (inactive) | > 100 µM (inactive) | > 100 µM (inactive) | > 100 µM (inactive) | > 100 µM (inactive) | –
2 | O=C1NC(N2CCOCC2)=N/C1=C\c1ccccc1 | > 100 µM (inactive) | > 100 µM (inactive) | > 100 µM (inactive) | > 100 µM (inactive) | > 100 µM (inactive) | > 100 µM (inactive) | > 100 µM (inactive) | > 100 µM (inactive) | – | > 100 µM (inactive) | > 100 µM (inactive) | > 100 µM (inactive) | > 100 µM (inactive) | > 100 µM (inactive) | – | > 100 µM (inactive) | > 100 µM (inactive) | > 100 µM (inactive) | > 100 µM (inactive)
3 | C/C=C\C(CC(=O)NCCC1CN(S(=O)(=O)C(F)(F)F)c2ccccc21)CC(=O)OC (stereo not drawn) | > 100 µM (inactive) | 38.3 µM (inactive) | 49.9 µM (inactive) | 18.3 µM (inactive) | > 100 µM (inactive) | 59.3 µM (inactive) | 35.4 µM (inactive) | 50.8 µM (inactive) | 36.3 µM (inactive) | 37.4 µM (inactive) | 26.6 µM (inactive) | 16.9 µM (inactive) | 15.9 µM (inactive) | 43.3 µM (inactive) | 62.8 µM (inactive) | 58.6 µM (inactive) | 45.8 µM (inactive) | 27.4 µM (inactive) | –
4 | Cc1n[nH]c(=S)n1/N=C/c1ccc(-c2ccc(Cl)cc2)o1 | > 100 µM (inactive) | > 100 µM (inactive) | > 100 µM (inactive) | > 100 µM (inactive) | > 100 µM (inactive) | 31.6 µM (inactive) | > 100 µM (inactive) | 73.5 µM (inactive) | 43 µM (inactive) | 61.9 µM (inactive) | – | > 100 µM (inactive) | – | > 100 µM (inactive) | > 100 µM (inactive) | > 100 µM (inactive) | > 100 µM (inactive) | 11.3 µM (inactive) | 31.9 µM (inactive)
5 | N=C(N)NC(=N)Nc1ccccc1.Sc1nc2ccccc2s1 | – | 0.532 µM (active) | > 100 µM (inactive) | 53.8 µM (inactive) | > 100 µM (inactive) | > 100 µM (inactive) | > 100 µM (inactive) | > 100 µM (inactive) | > 100 µM (inactive) | > 100 µM (inactive) | > 100 µM (inactive) | > 100 µM (inactive) | > 100 µM (inactive) | > 100 µM (inactive) | > 100 µM (inactive) | > 100 µM (inactive) | > 100 µM (inactive) | > 100 µM (inactive) | > 100 µM (inactive)
6 | COC(=O)/C=C(\C(=O)OC)C1C(=O)Oc2c(C)c(=O)c3ccccc3n21 (stereo not drawn) | > 100 µM (inactive) | > 100 µM (inactive) | > 100 µM (inactive) | > 100 µM (inactive) | > 100 µM (inactive) | > 100 µM (inactive) | > 100 µM (inactive) | > 100 µM (inactive) | > 100 µM (inactive) | > 100 µM (inactive) | > 100 µM (inactive) | > 100 µM (inactive) | > 100 µM (inactive) | > 100 µM (inactive) | – | – | > 100 µM (inactive) | > 100 µM (inactive) | > 100 µM (inactive)
7 | CCCCC(=C=C(C)CO)C1CCCN1C(=O)OC(C)(C)C (stereo not drawn) | 15.1 µM (inactive) | 17.5 µM (inactive) | 20.4 µM (inactive) | 14.5 µM (inactive) | 18.1 µM (inactive) | 17.1 µM (inactive) | 18.5 µM (inactive) | 17 µM (inactive) | 15.2 µM (inactive) | 19.7 µM (inactive) | 14.3 µM (inactive) | 16.1 µM (inactive) | 15 µM (inactive) | 18.4 µM (inactive) | – | 21 µM (inactive) | 19 µM (inactive) | 16.1 µM (inactive) | 22.5 µM (inactive)
8 | O=C1OC2(c3ccccc31)c1cc(I)c(O)c(I)c1Oc1c2cc(I)c(O)c1I [ERYTHROSINE] | > 100 µM (inactive) | 5.46 µM (inactive) | > 100 µM (inactive) | 19.3 µM (inactive) | > 100 µM (inactive) | 92.3 µM (inactive) | > 100 µM (inactive) | > 100 µM (inactive) | 5.79 µM (inactive) | > 100 µM (inactive) | > 100 µM (inactive) | > 100 µM (inactive) | 64.1 µM (inactive) | > 100 µM (inactive) | – | > 100 µM (inactive) | > 100 µM (inactive) | 45.8 µM (inactive) | > 100 µM (inactive)
9 | COCC1OC(S(=O)(=O)c2ccccc2)C(O)C(OC)C1OC (stereo not drawn) | > 100 µM (inactive) | > 100 µM (inactive) | > 100 µM (inactive) | > 100 µM (inactive) | > 100 µM (inactive) | > 100 µM (inactive) | > 100 µM (inactive) | > 100 µM (inactive) | > 100 µM (inactive) | > 100 µM (inactive) | > 100 µM (inactive) | > 100 µM (inactive) | > 100 µM (inactive) | > 100 µM (inactive) | – | > 100 µM (inactive) | > 100 µM (inactive) | > 100 µM (inactive) | –
10 | COC(=O)/C=C\[C@H]1[C@H](C)N1S(=O)(=O)c1ccc(C)cc1 (stereo partly drawn) | > 100 µM (inactive) | > 100 µM (inactive) | > 100 µM (inactive) | 20.4 µM (inactive) | > 100 µM (inactive) | > 100 µM (inactive) | > 100 µM (inactive) | > 100 µM (inactive) | > 100 µM (inactive) | > 100 µM (inactive) | 91 µM (inactive) | > 100 µM (inactive) | > 100 µM (inactive) | > 100 µM (inactive) | > 100 µM (inactive) | > 100 µM (inactive) | > 100 µM (inactive) | > 100 µM (inactive) | –
11 | C=CCC1(O)CC(n2cc(C)c(=O)[nH]c2=O)OC1CO[Si](C)(C)C(C)(C)C (stereo not drawn) | 45 µM (inactive) | 39 µM (inactive) | 47.8 µM (inactive) | – | 45.8 µM (inactive) | 75.3 µM (inactive) | 36.5 µM (inactive) | 64.6 µM (inactive) | 29 µM (inactive) | 36.7 µM (inactive) | 43.8 µM (inactive) | 34.4 µM (inactive) | – | 68.9 µM (inactive) | 37.2 µM (inactive) | 61.9 µM (inactive) | 35.5 µM (inactive) | 46.3 µM (inactive) | 38 µM (inactive)
